Experimental data published in US12622909B2, “Allosteric EGFR inhibitors and methods of use thereof” (Dana-Farber Cancer Institute, Inc., priority 2019, dated 2026).
pIC50: −log10 of the molar value. Read-outs that look alike come from different tables or passages of the source.

How the values were obtained:
[1] = biological target: EGFR L858R (Homo sapiens, UniProt P00533, L858R); assay: HTRF-based EGFR biochemical assay (L858R); details: 100 μM ATP, enzyme 0.1 nM
Procedure: (§1) EGFR biochemical activity measurements were carried out using the homogeneous time-resolved fluorescence (HTRF) assay (Cisbio). Inhibitors and DMSO normalizations were first dispensed to empty black low-volume 384-well plates (Corning) with D300 digital liquid dispenser (HP). All reactions were carried out at room temperature and solutions were added to plates with a Multidrop Combi Reagent Dispenser (ThermoFisher). The reaction mixture (10 μL final volume) contained 1 μM tyrosine kinase peptide-biotin substrate and mutant EGFR in a reaction buffer (50 mM HEPES pH 7.0, 5 mM MgCl2, 1 mM MnCl2, 0.01% BSA, 2 mM TCEP, 0.1 mM NaVO4). […] Enzyme reaction solution (2× concentrations, 5 μL) was added to 384-well plates containing compounds and incubated for 30 mins. Enzyme reactions were initiated with the addition of 5 μL of ATP to a final concentration of 100 μM and reacted for 20 mins. Reactions were quenched with the addition of 10 μL of phospho-tyrosine antibody-Europium(III) cryptate (1-to-180 volume ratio) and Streptavidin-XL665 (46.7 nM) in EDTA-containing detection buffer, then incubated at room temperature for 1 hour, and read with a PHERAstar plate reader (excitation=337 nm, emission=620 nm and 665 nm).

[2] = biological target: EGFR L858R/T790M (Homo sapiens, UniProt P00533, L858R/T790M); assay: HTRF-based EGFR biochemical assay (L858R/T790M); details: 100 μM ATP, enzyme 0.02 nM
Sequence of EGFR L858R/T790M (P00533 25-1210 T790M/L858R): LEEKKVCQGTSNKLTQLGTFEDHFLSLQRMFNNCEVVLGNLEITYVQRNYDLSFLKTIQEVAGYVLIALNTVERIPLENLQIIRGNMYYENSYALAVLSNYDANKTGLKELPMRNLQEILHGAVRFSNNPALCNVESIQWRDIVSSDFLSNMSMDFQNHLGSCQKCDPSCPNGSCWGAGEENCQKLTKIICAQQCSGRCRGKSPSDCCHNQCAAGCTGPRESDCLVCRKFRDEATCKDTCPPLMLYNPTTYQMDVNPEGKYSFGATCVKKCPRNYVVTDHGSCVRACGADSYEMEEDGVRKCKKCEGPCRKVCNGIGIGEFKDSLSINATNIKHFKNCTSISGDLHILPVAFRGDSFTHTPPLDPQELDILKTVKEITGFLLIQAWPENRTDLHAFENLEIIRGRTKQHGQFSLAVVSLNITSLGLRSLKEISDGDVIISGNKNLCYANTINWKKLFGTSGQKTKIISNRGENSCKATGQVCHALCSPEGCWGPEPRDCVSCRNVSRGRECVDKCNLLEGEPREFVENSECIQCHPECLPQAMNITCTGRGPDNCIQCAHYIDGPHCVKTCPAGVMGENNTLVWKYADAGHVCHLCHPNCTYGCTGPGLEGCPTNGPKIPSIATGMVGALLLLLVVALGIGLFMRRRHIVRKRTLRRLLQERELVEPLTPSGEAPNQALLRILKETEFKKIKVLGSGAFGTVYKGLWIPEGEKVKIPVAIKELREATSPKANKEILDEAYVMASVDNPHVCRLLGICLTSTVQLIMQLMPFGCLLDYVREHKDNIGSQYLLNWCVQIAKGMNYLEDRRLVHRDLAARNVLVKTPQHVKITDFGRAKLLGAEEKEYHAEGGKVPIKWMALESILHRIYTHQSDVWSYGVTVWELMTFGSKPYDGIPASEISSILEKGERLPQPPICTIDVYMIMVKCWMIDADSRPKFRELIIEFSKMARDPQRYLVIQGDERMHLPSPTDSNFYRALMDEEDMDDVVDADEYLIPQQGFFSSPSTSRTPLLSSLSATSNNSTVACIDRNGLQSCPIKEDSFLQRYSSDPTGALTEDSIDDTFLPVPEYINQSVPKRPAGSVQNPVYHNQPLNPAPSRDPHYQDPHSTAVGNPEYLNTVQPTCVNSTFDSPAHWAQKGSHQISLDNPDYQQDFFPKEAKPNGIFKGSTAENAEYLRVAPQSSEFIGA
Procedure: as §1, with “mins.” for “mins. Reactions were quenched with the addition of 10 μL of phospho-tyrosine antibody-Europium(III) cryptate (1-to-180 volume ratio) and Streptavidin-XL665 (46.7 nM) in EDTA-containing detection buffer, then incubated at room temperature for 1 hour, and read with a PHERAstar plate reader (excitation=337 nm, emission=620 nm and 665 nm).”

[3] = biological target: EGFR L858R/T790M mutant Ba/F3 cells (Homo sapiens, UniProt P00533, T790M/L858R, cells depend on it); assay: Ba/F3 cell proliferation (Cell Titer Glo); format: cell-based, murine; details: 72 hours
Sequence of EGFR L858R/T790M mutant Ba/F3 cells (P00533 whole entry T790M/L858R): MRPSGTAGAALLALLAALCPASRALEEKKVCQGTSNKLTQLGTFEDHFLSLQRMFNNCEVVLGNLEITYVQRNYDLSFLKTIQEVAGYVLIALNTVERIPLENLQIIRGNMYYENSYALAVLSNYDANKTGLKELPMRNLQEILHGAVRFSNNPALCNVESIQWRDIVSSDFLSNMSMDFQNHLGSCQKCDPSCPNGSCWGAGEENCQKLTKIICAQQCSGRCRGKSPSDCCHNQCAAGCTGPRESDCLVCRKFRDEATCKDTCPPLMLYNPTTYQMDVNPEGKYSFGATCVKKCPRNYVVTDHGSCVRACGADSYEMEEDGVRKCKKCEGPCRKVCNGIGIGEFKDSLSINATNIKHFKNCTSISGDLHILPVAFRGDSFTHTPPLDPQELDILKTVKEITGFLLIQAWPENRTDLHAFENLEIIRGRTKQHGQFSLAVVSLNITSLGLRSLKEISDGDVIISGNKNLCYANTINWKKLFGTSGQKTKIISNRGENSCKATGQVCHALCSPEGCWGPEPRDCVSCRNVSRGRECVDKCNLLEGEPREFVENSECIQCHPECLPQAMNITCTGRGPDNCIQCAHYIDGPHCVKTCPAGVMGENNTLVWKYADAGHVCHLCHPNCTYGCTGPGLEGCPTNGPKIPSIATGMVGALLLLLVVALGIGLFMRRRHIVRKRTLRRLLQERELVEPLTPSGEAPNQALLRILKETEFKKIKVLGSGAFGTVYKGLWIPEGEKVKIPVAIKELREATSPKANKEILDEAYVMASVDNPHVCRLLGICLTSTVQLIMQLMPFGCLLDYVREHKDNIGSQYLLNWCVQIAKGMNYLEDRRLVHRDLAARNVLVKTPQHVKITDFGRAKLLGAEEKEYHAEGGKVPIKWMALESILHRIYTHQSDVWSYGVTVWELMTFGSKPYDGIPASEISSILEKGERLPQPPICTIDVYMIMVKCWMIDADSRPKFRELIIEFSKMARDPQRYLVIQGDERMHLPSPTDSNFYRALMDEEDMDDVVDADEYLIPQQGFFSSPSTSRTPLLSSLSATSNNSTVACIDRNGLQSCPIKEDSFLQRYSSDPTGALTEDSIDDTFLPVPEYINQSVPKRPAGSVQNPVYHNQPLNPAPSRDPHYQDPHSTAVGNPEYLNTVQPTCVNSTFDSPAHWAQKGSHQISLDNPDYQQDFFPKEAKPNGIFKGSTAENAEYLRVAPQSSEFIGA
Source text: All cell lines were maintained in RPMI 1640 (Cellgro; Mediatech Inc., Herndon, CA) supplemented with 10% FBS, 100 units/mL penicillin, 100 units/mL streptomycin. The EGFR I941R mutation was introduced via site directed mutagenesis using the Quick Change Site-Directed Mutagenesis kit (Stratagene; La Jolla, CA) according to the manufacturer's instructions. All constructs were confirmed by DNA sequencing. The constructs were shuttled into the retroviral vector JP1540 using the Cre-recombination system (Agilent Technologies, Santa Clara, CA). Ba/F3 cells were then infected with retrovirus per standard protocols, as described previously (Zhou, et al, Nature 2009). Stable clones were obtained by selection in puromycin (2 μg/ml).
Growth and inhibition of growth was assessed by the Cell Titer Glo assay (Promega, Madison, WI) and was performed according to the manufacturer's instructions. The Cell Titer Glo assay is a luminescence-based method used to determine the number of viable cells based on quantitation of the ATP present, which is directly proportional to the amount of metabolically active cells present. […] All experimental points were set up in triplicates in 384-well plates and all experiments were repeated at least three times. […] The curves were fitted using a non-linear regression model with a sigmoidal dose response.

[4] = in combination with 1 μg/ml cetuximab, read-out: Cell IC50 BaF3 L858R/T790M compound + cetuximab
[5] = single agent, read-out: Cell IC50 EGFR BaF3 L858R/T790M

Sequence of EGFR L858R (P00533 25-1210 L858R): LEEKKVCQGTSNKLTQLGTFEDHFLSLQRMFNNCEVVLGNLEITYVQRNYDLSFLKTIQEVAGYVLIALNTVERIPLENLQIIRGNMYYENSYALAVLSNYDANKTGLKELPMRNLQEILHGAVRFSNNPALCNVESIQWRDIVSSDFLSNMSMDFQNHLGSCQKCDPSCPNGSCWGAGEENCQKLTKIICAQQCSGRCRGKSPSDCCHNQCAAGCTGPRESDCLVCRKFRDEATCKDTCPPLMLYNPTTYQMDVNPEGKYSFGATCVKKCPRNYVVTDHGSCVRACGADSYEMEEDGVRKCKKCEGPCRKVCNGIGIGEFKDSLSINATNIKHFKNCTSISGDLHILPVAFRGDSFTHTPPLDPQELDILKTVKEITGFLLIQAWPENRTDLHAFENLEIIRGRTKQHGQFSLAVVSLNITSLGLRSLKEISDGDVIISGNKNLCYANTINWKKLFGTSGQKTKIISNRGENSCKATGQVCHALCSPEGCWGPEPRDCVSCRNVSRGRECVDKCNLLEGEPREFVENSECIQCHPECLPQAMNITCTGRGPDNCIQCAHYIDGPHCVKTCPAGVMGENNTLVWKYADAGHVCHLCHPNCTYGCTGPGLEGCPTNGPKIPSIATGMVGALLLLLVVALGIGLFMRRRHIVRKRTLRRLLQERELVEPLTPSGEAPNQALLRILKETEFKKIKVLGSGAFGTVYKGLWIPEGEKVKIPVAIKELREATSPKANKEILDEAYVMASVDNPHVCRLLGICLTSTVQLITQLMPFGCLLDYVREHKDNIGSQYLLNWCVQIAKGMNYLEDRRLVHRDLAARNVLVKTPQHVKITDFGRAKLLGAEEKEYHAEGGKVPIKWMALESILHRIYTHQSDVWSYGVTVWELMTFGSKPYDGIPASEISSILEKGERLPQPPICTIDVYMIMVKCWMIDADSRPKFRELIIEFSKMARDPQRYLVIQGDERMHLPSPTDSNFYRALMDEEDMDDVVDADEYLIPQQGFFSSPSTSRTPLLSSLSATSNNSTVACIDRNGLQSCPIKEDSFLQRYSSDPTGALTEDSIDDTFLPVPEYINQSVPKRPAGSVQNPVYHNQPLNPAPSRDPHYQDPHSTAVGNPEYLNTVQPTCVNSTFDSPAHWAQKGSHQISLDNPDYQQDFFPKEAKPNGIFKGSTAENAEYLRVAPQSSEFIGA

Row | pIC50 [1] | pIC50 [2] | GI50 [3, 4] | GI50 [3, 5] | SMILES
1 | 5.90 | 7.21 | 8.3 µM | > 10 µM | O=C(Nc1nccs1)C(c1ccccc1)n1cnc2cc(Br)ccc2c1=O (centres unmarked) [Compound 001, 2-(7-Bromo-4-oxoquinazolin-3(4H)-yl)-2-phenyl-N-(thiazol-2-yl)acetamide]
2 | 6.56 | 7.46 | 0.98 µM | > 10 µM | O=C(Nc1nccs1)C(c1ccccc1)n1cnc2ccc(Br)cc2c1=O (centres unmarked) [Compound 002, 2-(6-Bromo-4-oxoquinazolin-3(4H)-yl)-2-phenyl-N-(thiazol-2-yl)-acetamide]
3 | 6.61 | 7.80 | 2 µM | > 10 µM | O=C(Nc1nccs1)C(c1ccccc1)n1ccc2cc(Br)ccc2c1=O (centres unmarked) [Compound 003, 2-(6-Bromo-1-oxoisoquinolin-2(1H)-yl)-2-phenyl-N-(thiazol-2-yl)-acetamide]
4 | 6.28 | 7.54 | 0.79 µM | > 10 µM | O=C(Nc1nccs1)C(c1ccccc1)n1ccc2ccc(Br)cc2c1=O (centres unmarked) [Compound 004, 2-(7-Bromo-1-oxoisoquinolin-2(1H)-yl)-2-phenyl-N-(thiazol-2-yl)-acetamide]
5 | < 6.00 | 7.04 | 4.8 µM | > 10 µM | O=C(Nc1nccs1)C(c1ccccc1)n1cnc2cc(Br)c(F)cc2c1=O (centres unmarked) [Compound 005, 2-(7-Bromo-6-fluoro-4-oxoquinazolin-3(4H)-yl)-2-phenyl-N-(thiazol-2-yl)acetamide]
6 | < 6.00 | 7.44 | 1.8 µM | > 10 µM | O=C(Nc1nccs1)C(c1ccccc1)n1cc(F)c2cc(Br)ccc2c1=O (centres unmarked) [Compound 006, 2-(6-Bromo-4-fluoro-1-oxo-isoquinolin-2(1H)-yl)-2-phenyl-N-(thiazol-2-yl)acetamide]
7 | < 6.00 | 7.32 | 1.5 µM | > 10 µM | O=C(Nc1nccs1)C(c1cccc(F)c1)n1ccc2ccc(Br)cc2c1=O (centres unmarked) [Compound 007, 2-(7-Bromo-1-oxoisoquinolin-2(1H)-yl)-2-(3-fluorophenyl)-N-(thiazol-2-yl)acetamide]
8 | < 6.00 | 7.19 | 2.5 µM | > 10 µM | O=C(Nc1nccs1)C(c1cccc(F)c1)n1ccc2cc(Br)ccc2c1=O (centres unmarked) [Compound 008, 2-(6-Bromo-1-oxoisoquinolin-2(1H)-yl)-2-(3-fluorophenyl)-N-(thiazol-2-yl)acetamide]
9 | < 6.00 | 8.00 | > 10 µM | > 10 µM | O=C(Nc1nccs1)C(c1ccccc1)n1ncc2cc(Br)ccc2c1=O (centres unmarked) [Compound 009, 2-(6-Bromo-1-oxophthalazin-2(1H)-yl)-2-phenyl-N-(thiazol-2-yl)-acetamide]
10 | 5.74 | 7.27 | > 10 µM | > 10 µM | O=C(Nc1nccs1)C(c1cccc(F)c1)n1cnc2cc(Br)ccc2c1=O (centres unmarked) [Compound 010, 2-(7-Bromo-4-oxoquinazolin-3(4H)-yl)-2-(3-fluorophenyl)-N-(thiazol-2-yl)acetamide]
11 | 6.71 | 7.80 | 0.35 µM | > 10 µM | O=C(Nc1nccs1)C(c1cccc(F)c1)n1cnc2ccc(Br)cc2c1=O (centres unmarked) [Compound 011, 2-(6-Bromo-4-oxoquinazolin-3(4H)-yl)-2-(3-fluorophenyl)-N-(thiazol-2-yl)acetamide]
12 | 7.96 | 8.22 | 0.2 µM | 2.15 µM | CN1CCC(c2ccc(-c3ccc4c(=O)n(C(C(=O)Nc5nccs5)c5ccccc5)cnc4c3)cc2)CC1 (centres unmarked) [Compound 012, 2-(7-(4-(1-Methylpiperidin-4-yl)phenyl)-4-oxoquinazolin-3(4H)-yl)-2-phenyl-N-(thiazol-2-yl)acetamide]
13 | 8.15 | 9.00 | 0.02 µM | 2.32 µM | CN1CCN(c2ccc(-c3ccc4ncn(C(C(=O)Nc5nccs5)c5ccccc5)c(=O)c4c3)cc2)CC1 (centres unmarked) [Compound 015, 2-(6-(4-(4-Methylpiperazin-1-yl)-phenyl)-4-oxoquinazolin-3(4H)-yl)-2-phenyl-N-(thiazol-2-yl)acetamide]
14 | 8.52 | 9.00 | 0.02 µM | 1.19 µM | CN1CCC(c2ccc(-c3ccc4c(=O)n(C(C(=O)Nc5nccs5)c5ccccc5)ccc4c3)cc2)CC1 (centres unmarked) [Compound 016, 2-(6-(4-(1-Methylpiperidin-4-yl)-phenyl)-1-oxoisoquinolin-2(1H)-yl)-2-phenyl-N-(thiazol-2-yl)acetamide]
15 | 8.15 | 8.52 | 0.062 µM | 1.27 µM | CN1CCN(c2ccc(-c3ccc4c(=O)n(C(C(=O)Nc5nccs5)c5ccccc5)ccc4c3)cc2)CC1 (centres unmarked) [Compound 017, 2-(6-(4-(4-Methylpiperazin-1-yl)-phenyl)-1-oxoisoquinolin-2(1H)-yl)-2-phenyl-N-(thiazol-2-yl)acetamide]
16 | 7.92 | 8.70 | 0.072 µM | 1.52 µM | CN1CCC(c2ccc(-c3ccc4ccn(C(C(=O)Nc5nccs5)c5ccccc5)c(=O)c4c3)cc2)CC1 (centres unmarked) [Compound 018, 2-(7-(4-(1-Methylpiperidin-4-yl)-phenyl)-1-oxoisoquinolin-2(1H)-yl)-2-phenyl-N-(thiazol-2-yl)acetamide]
17 | 7.59 | 8.22 | 0.78 µM | 1.42 µM | CN1CCC(c2ccc(-c3cc4ncn(C(C(=O)Nc5nccs5)c5ccccc5)c(=O)c4cc3F)cc2)CC1 (centres unmarked) [Compound 020, 2-(6-Fluoro-7-(4-(1-methylpiperidin-4-yl)phenyl)-4-oxoquinazolin-3(4H)-yl)-2-phenyl-N-(thiazol-2-yl)acetamide]
18 | 6.99 | 7.80 | 0.97 µM | 2.9 µM | CN1CCN(c2ccc(-c3cc4ncn(C(C(=O)Nc5nccs5)c5ccccc5)c(=O)c4cc3F)cc2)CC1 (centres unmarked) [Compound 021, 2-(6-Fluoro-7-(4-(4-methylpiperazin-1-yl)phenyl)-4-oxoquinazolin-3(4H)-yl)-2-phenyl-N-(thiazol-2-yl)acetamide]
19 |  |  | 0.028 µM | 4.52 µM | O=C(Nc1nccs1)C(c1ccccc1)n1cnc2ccc(C#Cc3cccnc3)cc2c1=O (centres unmarked) [Compound 061, 2-(4-Oxo-6-(pyridin-3-ylethynyl)quinazolin-3(4H)-yl)-2-phenyl-N-(thiazol-2-yl)acetamide]

Row | SMILES | pIC50 [1] | pIC50 [2] | GI50 [3, 4] | GI50 [3, 5]
20 | CN1CCN(c2ccc(-c3ccc4c(=O)n(C(C(=O)Nc5nccs5)c5ccccc5)cnc4c3)cc2)CC1 (centres unmarked) [Compound 013, 2-(7-(4-(4-Methylpiperazin-1-yl)-phenyl)-4-oxoquinazolin-3(4H)-yl)-2-phenyl-N-(thiazol-2-yl)acetamide] | 7.85 | 8.52 | 0.38 µM | 2 µM
21 | CN1CCC(c2ccc(-c3ccc4ncn(C(C(=O)Nc5nccs5)c5ccccc5)c(=O)c4c3)cc2)CC1 (centres unmarked) [Compound 014, 2-(6-(4-(1-Methylpiperidin-4-yl)-phenyl)-4-oxoquinazolin-3(4H)-yl)-2-phenyl-N-(thiazol-2-yl)acetamide] | 8.52 | 9.70 | 0.005 µM | 0.51 µM
22 | CN1CCN(c2ccc(-c3ccc4ccn(C(C(=O)Nc5nccs5)c5ccccc5)c(=O)c4c3)cc2)CC1 (centres unmarked) [Compound 019, 2-(7-(4-(4-Methylpiperazin-1-yl)-phenyl)-1-oxoisoquinolin-2(1H)-yl)-2-phenyl-N-(thiazol-2-yl)acetamide] | 7.46 | 8.30 | 0.044 µM | 1.85 µM
